What all share (experiment): 3H-TdR incorporation at 72 hr (24 hr drug exposure, wash, 48 hr)
One test has as its system H-460. Type of test: cell-based, Human. Particulars: Homo sapiens, NCI-H460, read-out: IC50 in μM (3H-TdR incorporation at 72 hr) H-460 24 h, H-460 Human Lung Carcinoma, 72 hr assay. How it is done: (§1) Exposition of 24 hr to drug, wash, incubated for another 48 hr (total of 72 hr assay)
(§2) (3H-Thymidine Incorporation Assay)

In the next test the test system is MCF-7. Type of test: cell-based, Human. Particulars: Homo sapiens, MCF7, read-out: IC50 in μM (3H-TdR incorporation at 72 hr) MCF-7 24 h, MCF-7 Human Breast Carcinoma, 72 hr assay. How it is done:
as §1, §2

The test system of a further test is SF-268. It counts as cell-based, Human. The conditions noted are these: Homo sapiens, SF-268, read-out: IC50 in μM (3H-TdR incorporation at 72 hr) SF-268 24 h, SF-268 Human Central Nervous System Tumor; 24 h drug exposure, 72 hr assay. How it is done:
as §1, §2

In a further test the test system is CCRF-CEM. It counts as cell-based. Particulars: Homo sapiens, CCRF-CEM, read-out: IC50 in μM (3H-TdR incorporation at 72 hr) CCRF-CEM 24 h, CCRF-CEM T-cell Leukemia, 72 hr assay. The protocol:
as §1, §2

A further test concerns CEM/dCK-. Type of test: cell-based. Particulars: for IC50: Homo sapiens, CCRF-CEM, read-out: IC50 in μM (3H-TdR incorporation at 72 hr) CEM/dCK- 24 h, CCRF-CEM deoxycytidine kinase-deficient, 24 h drug exposure, 72 hr assay; for Factor* (Resistance Factor = Ratio of dCK- on Wild-type CCRF-CEM): ratio of IC50 CEM/dCK- to IC50 CCRF-CEM. How it is done: as §1, §2

Structures are written as SMILES.

For `CC(C)N(/C=N/c1ccn([C@@H]2CO[C@H](CO)O2)c(=O)n1)C(C)C` [Compound 230, N′-[1-(2-HYDROXYMETHYL- [1,3]DIOXOLAN-4-YL)-2- OXO-1,2-DIHYDRO- PYRIMIDIN-4-YL]-N,N- DIISOPROPYL-FORMAMIDINE], the IC50 was 1.5 µM with H-460; 3.8 µM with MCF-7; 9.5 µM in the test with SF-268; 1 µM in the test on CCRF-CEM; more than 100 µM with CEM/dCK-. Also, the “Factor* (Resistance Factor = Ratio of dCK- on Wild-type CCRF-CEM)” value in the test on CEM/dCK- is recorded as more than 100.

Turning to `CC(C)(C)OC(=O)NCCCCCC(=O)Nc1ccn([C@@H]2CO[C@H](CO)O2)c(=O)n1` [Compound 193, {5-[1-(2-HYDROXYMETHYL- [1,3]DIOXOLAN-4-YL)-2- OXO-1,2-DIHYDRO- PYRIMIDIN-4- YLCARBAMOYL]-PENTYL}- CARBAMIC ACID TERT- BUTYL ESTER], the IC50 in the test on H-460 was 0.64 µM; in the test with MCF-7, 0.16 µM; in the test with SF-268, 2 µM; with CCRF-CEM, 0.059 µM; in the test on CEM/dCK- it was more than 100 µM. For the same compound, the “Factor* (Resistance Factor = Ratio of dCK- on Wild-type CCRF-CEM)” value in the test with CEM/dCK- is more than 1695.

On to `CC(C)(C)OC(=O)NCCCCCC(=O)OC[C@H]1OC[C@@H](n2ccc(N)nc2=O)O1` [Compound 194, 6-TERT!- BUTOXYCARBONYLAMINO- HEXANOIC ACID 4-(4- AMINO-2-OXO-2H- PYRIMIDIN-1-YL)- [1,3]DIOXOLAN-2- YLMETHYL ESTER], for which the IC50 in the test with H-460 worked out at 0.011 µM; with MCF-7, 0.004 µM; in the test with SF-268 it was 0.041 µM; with CCRF-CEM it was 0.0024 µM; in the test with CEM/dCK- it was 10 µM. Besides, the “Factor* (Resistance Factor = Ratio of dCK- on Wild-type CCRF-CEM)” value with CEM/dCK- turned out to be 4167.

Consider `COc1ccc(C(OC)(OC)OC[C@H]2OC[C@@H](n3ccc(N)nc3=O)O2)cc1` [Compound 195, 4-AMINO-1-{2- [DIMETHOXY-(4-METHOXY- PHENYL)-METHOXYMETHYL]- [1,3]DIOXOLAN-4-YL}- 1#H!-PYRIMIDIN-2-ONE], for which the IC50 is 1.1 µM with H-460; 1.9 µM in the test with MCF-7; 1.5 µM with SF-268; 0.064 µM with CCRF-CEM; more than 100 µM in the test with CEM/dCK-. Moreover, in the test on CEM/dCK-, the “Factor* (Resistance Factor = Ratio of dCK- on Wild-type CCRF-CEM)” value is reported as more than 1563.

For `CC(C)C(C(=O)Nc1ccn([C@@H]2CO[C@H](CO)O2)c(=O)n1)c1ccccc1` (stereo partly drawn) [Compound 249, #N!-[1-(2- HYDROXYMETHYL- [1,3]DIOXOLAN-4-YL)-2- OXO-1,2-DIHYDRO- PYRIMIDIN-4-YL]-3- METHYL-2-PHENYL- BUTYRAMIDE], the IC50 in the test with H-460 was 8.6 µM; with MCF-7, 0.78 µM; with SF-268 it was 8.4 µM; in the test with CCRF-CEM, 3.9 µM; in the test on CEM/dCK-, more than 100 µM. Also, in the test with CEM/dCK-, the “Factor* (Resistance Factor = Ratio of dCK- on Wild-type CCRF-CEM)” value is more than 25.

With `CCOC(=O)/C=C/OC[C@H]1OC[C@@H](n2ccc(N)nc2=O)O1` [Compound 201, 3-[4-(4-AMINO-2-OXO-2H- PYRIMIDIN-1-YL)- [1,3]DIOXOLAN-2-YL METHOXY]-ACRYLIC ACID ETHYL ESTER], the IC50 in the test with H-460 was 17 µM; in the test with MCF-7, 18 µM; in the test with SF-268 it was 7.3 µM; in the test with CCRF-CEM, 14 µM; with CEM/dCK- it was more than 100 µM. Moreover, the “Factor* (Resistance Factor = Ratio of dCK- on Wild-type CCRF-CEM)” value in the test with CEM/dCK- is listed as more than 7.

For `COc1ccc(C(=O)Nc2ccn([C@@H]3CO[C@H](COC(=O)c4ccc(OC)cc4)O3)c(=O)n2)cc1` [Compound 174, 4-METHOXY-BENZOIC ACID 4-[4-(4-METHOXY- BENZOYLAMINO)-2-OXO-2H- PYRIMIDIN-1-YL]- [1,3]DIOXOLAN-2- YLMETHYL ESTER], the IC50 in the test with H-460 was 11 µM; with MCF-7, 21 µM; in the test with SF-268, 38 µM; in the test on CCRF-CEM, 9 µM; in the test on CEM/dCK- it was more than 100 µM. Besides, in the test with CEM/dCK-, the “Factor* (Resistance Factor = Ratio of dCK- on Wild-type CCRF-CEM)” value is listed as more than 11.

For the compound `CCCCN(/C=N/c1ccn([C@@H]2CO[C@H](CO)O2)c(=O)n1)CCCC` (stereo in doubt) [Compound 221, N,N-Dibutyl-N′-[1-(2-hydroxymethyl [1,3]dioxolan-4-yl)-2-oxo-1,2-dihydro-pyrimidin-4-yl]-formamidine], the IC50 was 0.43 µM in the test on H-460; 0.39 µM in the test with MCF-7; 1.6 µM with SF-268; 0.13 µM in the test on CCRF-CEM; more than 100 µM in the test on CEM/dCK-. Also, in the test with CEM/dCK-, the “Factor* (Resistance Factor = Ratio of dCK- on Wild-type CCRF-CEM)” value was more than 769.

Take `O=c1nc(/N=C2/CCCN2Cc2ccccc2)ccn1[C@@H]1CO[C@H](CO)O1` (stereo in doubt) [Compound 236, 4-(1-BENZYL-PYRROLIDIN- 2-YLIDENEAMINO)-1-(2- HYDROXYMETHYL- [1,3]DIOXOLAN-4-YL)-1H- PYRIMIDIN-2-ONE]: the IC50 in the test with H-460 is 3.7 µM; with MCF-7, 8.6 µM; in the test with SF-268, 0.12 µM; in the test on CCRF-CEM, 5.1 µM; in the test with CEM/dCK- it was more than 100 µM. For the same compound, the “Factor* (Resistance Factor = Ratio of dCK- on Wild-type CCRF-CEM)” value in the test with CEM/dCK- is recorded as more than 20.

Turning to `COC(OC)(OC)OC[C@H]1OC[C@@H](n2ccc(N)nc2=O)O1` [Compound 177, 4-AMINO-1-(2- TRIMETHOXYMETHOXYMETHYL -[1,3]DIOXOLAN-4-YL)- 1H-PYRIMIDIN-2-ONE], the IC50 in the test on H-460 is 0.19 µM; in the test on MCF-7, 0.22 µM; in the test with SF-268, 0.92 µM; with CCRF-CEM, 0.095 µM; in the test on CEM/dCK-, more than 100 µM. The “Factor* (Resistance Factor = Ratio of dCK- on Wild-type CCRF-CEM)” value with CEM/dCK- is more than 1052.

Regarding `COc1ccc(C(=O)Nc2ccn([C@@H]3CO[C@H](CO)O3)c(=O)n2)cc1` [Compound 175, N-[1-(2-HYDROXYMETHYL- [1,3]DIOXOLAN-4-YL)-2- OXO-1,2-DIHYDRO- PYRIMIDIN-4-YL]-4- METHOXY-BENZAMIDE], the IC50 with H-460 was 6.3 µM; in the test with MCF-7 it was 3.1 µM; with SF-268 it was 32 µM; in the test on CCRF-CEM, 3.5 µM; in the test on CEM/dCK-, more than 100 µM. For the same compound, the “Factor* (Resistance Factor = Ratio of dCK- on Wild-type CCRF-CEM)” value in the test on CEM/dCK- was more than 29.

As to `C#CCOC[C@H]1OC[C@@H](n2ccc(N)nc2=O)O1` [Compound 173, (S,S)-4-AMINO-1-(2′- PROP-2′-YNYLOXYMETHYL- [1,3]DIOXOLAN-4′-YL)- 1H-PYRIMIDIN-2-ONE], the IC50 is 6.1 µM in the test with H-460; 17 µM in the test with MCF-7; 2 µM with SF-268; 2.6 µM with CCRF-CEM; more than 100 µM in the test on CEM/dCK-. Besides, in the test on CEM/dCK-, the “Factor* (Resistance Factor = Ratio of dCK- on Wild-type CCRF-CEM)” value is more than 38.

`O=C(Nc1ccn([C@@H]2CO[C@H](CO)O2)c(=O)n1)OCc1ccc([N+](=O)[O-])cc1` [Compound 182, [1-(2-HYDROXYMETHYL- [1,3]DIOXOLAN-4-YL)-2- OXO-1,2-DIHYDRO- PYRIMIDIN-4-YL]- CARBAMIC ACID 4-NITRO- BENZYL ESTER]: the IC50 in the test with H-460 is 0.13 µM; with MCF-7, 0.22 µM; with SF-268 it was 0.21 µM; in the test with CCRF-CEM, 0.047 µM; in the test on CEM/dCK-, more than 100 µM. Besides, in the test on CEM/dCK-, the “Factor* (Resistance Factor = Ratio of dCK- on Wild-type CCRF-CEM)” value was more than 2100.

Take `CCOC[C@H]1OC[C@@H](n2ccc(N)nc2=O)O1` [Compound 178, (S,S)-4-AMINO-1-(2′- ETHOXYMETHYL- [1,3]DIOXOLAN-4′-YL)- 1H-PYRIMIDIN-2-ONE]: the IC50 is 88 µM in the test on H-460; 5.8 µM with MCF-7; 41 µM with SF-268; 25 µM in the test with CCRF-CEM; more than 100 µM in the test with CEM/dCK-. Further, the “Factor* (Resistance Factor = Ratio of dCK- on Wild-type CCRF-CEM)” value in the test with CEM/dCK- is recorded as more than 4.

With `O=C(Nc1ccn([C@@H]2CO[C@H](CO)O2)c(=O)n1)C1(c2ccccc2)CCCCC1` [Compound 225, 1-PHENYL- CYCLOHEXANECARBOXYLIC ACID [1-(2- HYDROXYMETHYL- [1,3]DIOXOLAN-4-YL)-2- OXO-1,2-DIHYDRO- PYRIMIDIN-4-YL]-AMIDE], the IC50 in the test with H-460 was 11 µM; in the test on MCF-7, 11 µM; in the test on SF-268, 43 µM; in the test with CCRF-CEM, 0.88 µM; with CEM/dCK-, more than 100 µM. Also, the “Factor* (Resistance Factor = Ratio of dCK- on Wild-type CCRF-CEM)” value with CEM/dCK- was more than 113.

Take `Nc1ccn([C@@H]2CO[C@H](COC(=S)Sc3ccccc3)O2)c(=O)n1` [Compound 205, DITHIOCARBONIC ACID O- [4-(4-AMINO-2-OXO-2H- PYRIMIDIN-1-YL)- [1,3]DIOXOLAN-2-YL METHYL] ESTER S-PHENYL ESTER]: the IC50 is 0.28 µM in the test on H-460; 0.9 µM in the test with MCF-7; 0.1 µM with SF-268; 0.26 µM in the test with CCRF-CEM; more than 100 µM in the test with CEM/dCK-. In the test with CEM/dCK-, the “Factor* (Resistance Factor = Ratio of dCK- on Wild-type CCRF-CEM)” value is on record as more than 385.

For the compound `C=CCOC[C@H]1OC[C@@H](n2ccc(N)nc2=O)O1` [Compound 179, (S,S)-1-(2′- ALLYLOXYMETHYL- [1,3]DIOXOLAN-4′-YL)-4- AMINO-1H-PYRIMIDIN-2- ONE], the IC50 in the test with H-460 is 1.7 µM; in the test on MCF-7, 2.8 µM; in the test on SF-268, 0.56 µM; in the test on CCRF-CEM, 2.4 µM; in the test with CEM/dCK- it was more than 100 µM. Further, the “Factor* (Resistance Factor = Ratio of dCK- on Wild-type CCRF-CEM)” value in the test with CEM/dCK- is more than 42.

For the origin of these results see patent US20030013660A1, “Dioxolane analogs for improved inter-cellular delivery” (Shire BioChem Inc., priority 2000, published 2003).
